Test results from ChEMBL document CHEMBL3797065, “Kaurane and abietane diterpenoids from the roots of Tripterygium wilfordii and their cytotoxic evaluation” (Bioorg Med Chem Lett, 2016).
pIC50: −log10 of the molar value.

Legend:
[1] = Cytotoxicity against human Hep3B cells after 48 hrs by MTT assay; type: functional, cell-based, Hep 3B2
[2] = test system: U-251; assay: Cytotoxicity against human U251 cells after 48 hrs by MTT assay; type: functional, cell-based; conditions: U-251, 48 h
[3] = test system: HepG2; assay: Cytotoxicity against human HepG2 cells after 48 hrs by MTT assay; type: functional, cell-based; conditions: HepG2, 48 h
[4] = test system: A549; assay: Cytotoxicity against human A549 cells after 48 hrs by MTT assay; type: functional, cell-based; conditions: A549, 48 h
[5] = test system: MCF7; assay: Cytotoxicity against human MCF7 cells after 48 hrs by MTT assay; type: functional, cell-based; conditions: MCF7, 48 h
[6] = test system: Bcap37; assay: Cytotoxicity against human Bcap37 cells after 48 hrs by MTT assay; type: functional, cell-based; conditions: Bcap37, 48 h

SMILES	pIC50 [1]	pIC50 [2]	pIC50 [3]	pIC50 [4]	pIC50 [5]	pIC50 [6]
CC1=C(C(=O)O)CC[C@]2(C)C3=C(CC[C@@H]12)C(=O)C(C(C)C)=CC3=O	< 4.00	< 4.00	< 4.00	< 4.00	< 4.00	< 4.00
CO[C@@H]1OC[C@@]2(C)CCC[C@]13[C@@H]1CC[C@H]4C[C@@]1(CC[C@@H]23)C[C@@]4(C)O	< 4.00	< 4.00	< 4.00	< 4.00	< 4.00	< 4.00
COc1c(C(C)C)cc(O)c2c1CC[C@H]1C(C)(C)C(=O)CC[C@]21C	4.40	4.53	4.32	< 4.00	< 4.00	< 4.00
COc1c(C(C)C)cc(O)c2c1CCC1=C(C)C(=O)CC[C@@]12C	4.74	5.06	5.29	4.76	5.24	5.10
CC(C)c1ccc2c(c1)CC[C@H]1[C@@](C)(CO)C(=O)CC[C@]21C	< 4.00	< 4.00	4.49	4.41	< 4.00	< 4.00
C[C@@]1(O)C[C@@]23CC[C@H]4[C@@]5(CCC[C@]4(C)C(=O)OC5)[C@]2(O)CC[C@H]1C3	< 4.00	< 4.00	< 4.00	< 4.00	< 4.00	< 4.00
COc1cc2c(c(O)c1C(C)C)CC[C@H]1C(C)=C(C(=O)O)CC[C@]21C	4.53	< 4.00	4.37	< 4.00	< 4.00	4.42
CC(C)c1ccc2c(c1O)CC[C@H]1[C@@](C)(CO)[C@@H](O)CC[C@]21C	4.31	< 4.00	4.44	4.52	4.62	< 4.00
CC(C)C1=CC(=O)C2=C(CC[C@H]3[C@@](C)(CO)[C@@H](O)CC[C@]23C)C1=O	4.76	4.36	< 4.00	4.94	4.94	< 4.00
C[C@@]12CCC[C@]3(C(=O)OC1)[C@@H]2CC[C@@]12C[C@H](CC[C@H]13)[C@](C)(O)C2	< 4.00	< 4.00	4.01	< 4.00	< 4.00	< 4.00
CC(C)C1=C[C@@]2(O)OO[C@@H]3CC(=O)[C@](C)(CO)[C@@H]4CCC(=C2[C@]43C)C1=O	4.75	4.60	< 4.00	4.97	< 4.00	< 4.00
CC(C)c1ccc2c(c1O)CC[C@H]1C(C)(C)[C@@H](O)CC[C@]21C	< 4.00	< 4.00	4.33	< 4.00	< 4.00	< 4.00
COc1c(C(C)C)cc(O)c2c1CC[C@H]1C(C)=C(C(=O)O)CC[C@]21C	< 4.00	< 4.00	< 4.00	< 4.00	< 4.00	< 4.00
C[C@]12C3=C4CC=C[C@@]3(O)OO[C@@H]1CC1=C(COC1=O)[C@@H]2CC4	4.75	4.69	4.96	4.95	4.63	5.09
COc1c(C(C)C)cc(O)c2c1CC[C@H]1[C@@](C)(CO)C(=O)CC[C@]21C	4.54	< 4.00	4.66	4.67	4.63	< 4.00
CC(C)C1=CC(=O)C2=C(CC[C@H]3[C@@](C)(CO)C(=O)CC[C@]23C)C1=O	4.59	< 4.00	4.58	4.70	4.78	4.88
C=C1C(OC(C)=O)[C@]23[C@H](O)[C@H]1CC[C@H]2[C@]12CCCC(C)(C)[C@H]1[C@H](OC(C)=O)[C@@]3(O)OC2 (stereo not given in full)	4.32	< 4.00	4.42	4.66	4.43	< 4.00
CO[C@@H]1OC[C@@]23CCC[C@@]1(C)[C@@H]2CC[C@@]12C[C@@H](CC[C@H]13)[C@](C)(O)C2 (relative stereo)	4.31	4.87	4.54	4.41	< 4.00	4.93
O=c1[nH]cc(F)c(=O)[nH]1 [FLUOROURACIL]	4.76	4.61		4.67		4.81
C[C@@]1(O)C[C@@]23CC[C@H]4[C@@]5(CCC[C@]4(C)C(=O)OC5)[C@@H]2CC[C@H]1C3 [TRIPTERIFORDIN]	< 4.00	< 4.00	< 4.00	< 4.00	< 4.00	< 4.00
CC(C)c1ccc2c(c1)C(=O)C[C@H]1[C@@](C)(CO)C(=O)CC[C@]21C [TRIPTOBENZENE N]	< 4.00	< 4.00	4.36	4.48	< 4.00	< 4.00
CC(C)c1ccc2c(c1O)CC[C@H]1C3=C(CC[C@]21C)C(=O)OC3 [TRIPTOPHENOLIDE]	4.65	< 4.00	4.77	4.37	< 4.00	4.65
